Literature values in patent US20070066580A1, “Novel aldosterone antagonists and uses thereof” (Recordati Ireland Limited, priority 2005, published 2007).

Tests used:
[1] = severe heart failure (NYHA class IV), plus diuretics, versus placebo plus diuretics; cited from earlier work
MR = target: T1, MR (Homo sapiens, UniProt P08235); details: cited from earlier work
T1 sequence (P08235 1-984): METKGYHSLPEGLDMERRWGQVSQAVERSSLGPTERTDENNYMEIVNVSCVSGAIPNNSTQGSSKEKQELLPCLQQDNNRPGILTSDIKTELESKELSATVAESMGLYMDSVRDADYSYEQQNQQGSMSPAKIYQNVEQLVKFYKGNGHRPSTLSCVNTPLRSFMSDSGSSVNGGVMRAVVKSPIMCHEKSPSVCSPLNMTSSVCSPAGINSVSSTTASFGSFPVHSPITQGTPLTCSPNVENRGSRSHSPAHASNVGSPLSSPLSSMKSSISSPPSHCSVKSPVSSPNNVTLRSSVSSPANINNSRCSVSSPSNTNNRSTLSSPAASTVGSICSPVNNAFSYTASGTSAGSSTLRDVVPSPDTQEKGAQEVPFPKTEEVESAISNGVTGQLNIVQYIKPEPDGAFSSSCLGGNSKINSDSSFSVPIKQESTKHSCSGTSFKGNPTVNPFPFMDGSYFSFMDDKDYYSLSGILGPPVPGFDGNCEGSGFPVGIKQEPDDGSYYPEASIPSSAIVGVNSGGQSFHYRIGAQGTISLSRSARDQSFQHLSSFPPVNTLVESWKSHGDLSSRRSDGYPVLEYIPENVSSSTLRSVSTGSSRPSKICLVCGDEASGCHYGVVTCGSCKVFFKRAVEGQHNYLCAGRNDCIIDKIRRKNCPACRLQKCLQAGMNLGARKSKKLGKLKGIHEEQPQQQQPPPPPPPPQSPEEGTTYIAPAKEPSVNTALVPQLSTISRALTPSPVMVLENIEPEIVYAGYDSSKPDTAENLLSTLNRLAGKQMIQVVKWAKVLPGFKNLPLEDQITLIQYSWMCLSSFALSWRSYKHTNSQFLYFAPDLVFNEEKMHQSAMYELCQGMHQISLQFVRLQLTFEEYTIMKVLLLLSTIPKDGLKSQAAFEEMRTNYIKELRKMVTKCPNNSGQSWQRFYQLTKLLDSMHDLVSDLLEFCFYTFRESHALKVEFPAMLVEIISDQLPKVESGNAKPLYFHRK

[2] = cited from earlier work

SMILES | antimineralocorticoid potency, times more potent than spironolactone (MR) | also measured
CCOC(=O)[C@H](CCc1ccccc1)N[C@@H](C)C(=O)N1CCC[C@H]1C(=O)O [enalapril] |  | reduction of mortality at one year [1]: 31%
C[C@]12C=CC(=O)C=C1[C@@H]1C[C@@H]1[C@H]1[C@@H]3[C@@H]4C[C@@H]4[C@@]4(CCC(=O)O4)[C@@]3(C)CC[C@@H]12 [spirorenone] | approximately 7.5 times | 
C[C@]12CCC(=O)C=C1[C@@H]1C[C@@H]1[C@H]1[C@@H]3[C@@H]4C[C@@H]4[C@@]4(CCC(=O)O4)[C@@]3(C)CC[C@@H]12 | approximately 7.5 times | 
COC(=O)[C@@H]1CC2=CC(=O)CC[C@]2(C)[C@@]23O[C@@H]2C[C@@]2(C)[C@@H](CC[C@@]24CCC(=O)O4)[C@H]13 [eplerenone] |  | potency in vivo as % of spironolactone [2]: 50-75%
